Test results taken from patent US20250287944A1, “AMINOETHOXYVINYLGLYCINE AND 1-AMINO-1-CYCLOPROPANECARBOXYLIC ACID AND USES THEREOF” (Valent BioSciences LLC, priority 2024, published 2025).

Assays:
Format in all cases: in vivo
[1] = test system: apples, Cripps Pink variety; assay: Apple characteristics in Cripps Pink variety (red pixel area, ground color, firmness, starch conversion, brix); design: Ground Color / Starch: scale not given here; Firmness: unit not given here; settings: 34 hours post spray; for Average % Red Pixel Area: shaded; for Starch: starch conversion
Experimental: 10 sets of unripened apples, Cripps Pink variety, harvested three weeks before the normal harvest date, were each foliar sprayed with either 1) 0.05% Regulaid® as a control, 2) 125 ppm ACC, 3) 250 ppm ACC, 4) 500 ppm ACC, 5) 125 ppm AVG, 6) 125 ppm ACC and 125 ppm AVG, 7) 250 ppm ACC and 125 ppm AVG or 8) 500 ppm ACC and 125 ppm AVG. 34 hours post spray application percent red pixel area (shaded), ground color, fruit firmness, starch conversion and brix were measured.

[2] = test system: apple trees with mature apples of the Cripps Pink variety; assay: Fruit drop in Cripps Pink variety
Excerpt: AVG and/or ACC were applied to apple trees with mature apples of the Cripps Pink variety, wherein each set of trees were foliar sprayed with either 1) 0.05% Regulaid® as a control, 2) 125 ppm ACC, 3) 250 ppm ACC, 4) 500 ppm ACC, 5) 125 ppm AVG, 6) 125 ppm ACC and 125 ppm AVG, 7) 250 ppm ACC and 125 ppm AVG or 8) 500 ppm ACC and 125 ppm AVG.

[3] = test system: apples, Cripps Pink variety; assay: Apple greasiness in Cripps Pink variety; settings: 12 weeks of cold storage and 7 days at room temperature
Experimental: 10 sets of unripened apples, Cripps Pink variety, harvested three weeks before the normal harvest date, were each foliar sprayed with either 1) 0.05% Regulaid® as a control, 2) 125 ppm ACC, 3) 250 ppm ACC, 4) 500 ppm ACC, 5) 125 ppm AVG, 6) 125 ppm ACC and 125 ppm AVG, 7) 250 ppm ACC and 125 ppm AVG or 8) 500 ppm ACC and 125 ppm AVG. Following 12 weeks of cold storage and 7 days at room temperature greasiness was measured.

[4] = test system: apples, Cripps Pink variety; assay: Apple coloration in Cripps Pink variety (blush classes); settings: 34 hours post spray; for % Cripps Red: apples with a blush from 20% to 40%; for % Pink Lady: apples with a blush of greater than 40%; for % Class 3: apples with a blush of less than 20%
Experimental: 10 sets of unripened apples, Cripps Pink variety, harvested three weeks before the normal harvest date, were each foliar sprayed with either 1) 0.05% Regulaid® as a control, 2) 125 ppm ACC, 3) 250 ppm ACC, 4) 500 ppm ACC, 5) 125 ppm AVG, 6) 125 ppm ACC and 125 ppm AVG, 7) 250 ppm ACC and 125 ppm AVG or 8) 500 ppm ACC and 125 ppm AVG. 34 hours post spray application percent red pixel area (shaded) was measured. Pink Lady denotes apples with a blush of greater than 40%, Cripps Red denotes apples with a blush from 20% to 40% and Class 3 denotes apples with a blush of less than 20%.

[5] = harvest 1, 125 ppm foliar spray
[6] = harvest 1, 250 ppm foliar spray
[7] = harvest 1, 500 ppm foliar spray
[8] = harvest 2, 125 ppm foliar spray
[9] = harvest 2, 250 ppm foliar spray
[10] = harvest 2, 500 ppm foliar spray

Compound: NC1(C(=O)O)CC1 [ACC, 1-amino-1-cyclopropanecarboxylic acid]
- Brix ([1]; 125 ppm foliar spray): 12.25
- Firmness ([1]; 125 ppm foliar spray): 8.61
- Ground Color ([1]; 125 ppm foliar spray): 3.01
- Average % Red Pixel Area ([1]; 125 ppm foliar spray): 6.9%
- Brix ([1]; 250 ppm foliar spray): 12.5
- Firmness ([1]; 250 ppm foliar spray): 8.58
- Ground Color ([1]; 250 ppm foliar spray): 2.96
- Average % Red Pixel Area ([1]; 250 ppm foliar spray): 8%
- Brix ([1]; 500 ppm foliar spray): 12.51
- Firmness ([1]; 500 ppm foliar spray): 8.4
- Ground Color ([1]; 500 ppm foliar spray): 3.04
- Average % Red Pixel Area ([1]; 500 ppm foliar spray): 8.7%
- Starch ([1]; 125 ppm foliar spray): 40
- Starch ([1]; 250 ppm foliar spray): 45.3
- Starch ([1]; 500 ppm foliar spray): 56.2
- # of Fruit Dropped (Evaluation 1) ([2]; 125 ppm foliar spray to trees): 11.3 c
- # of Fruit Dropped (Evaluation 2) ([2]; 125 ppm foliar spray to trees): 10.4 bc
- Total # of Fruit Dropped ([2]; 125 ppm foliar spray to trees): 26.3 c
- # of Fruit Dropped (Evaluation 1) ([2]; 250 ppm foliar spray to trees): 15.2 c
- # of Fruit Dropped (Evaluation 2) ([2]; 250 ppm foliar spray to trees): 16.4 b
- Total # of Fruit Dropped ([2]; 250 ppm foliar spray to trees): 35.2 bc
- # of Fruit Dropped (Evaluation 1) ([2]; 500 ppm foliar spray to trees): 59.7 a
- # of Fruit Dropped (Evaluation 2) ([2]; 500 ppm foliar spray to trees): 40.1 a
- Total # of Fruit Dropped ([2]; 500 ppm foliar spray to trees): 105.8 a
- Percent Fruit with Moderate Greasiness [3, 5]: 40%
- Percent Fruit with No Greasiness [3, 5]: 21%
- Percent Fruit with Severe Greasiness [3, 5]: 17%
- Percent Fruit with Slight Greasiness [3, 5]: 22%
- Percent Fruit with Moderate Greasiness [3, 6]: 40%
- Percent Fruit with No Greasiness [3, 6]: 5%
- Percent Fruit with Severe Greasiness [3, 6]: 39%
- Percent Fruit with Slight Greasiness [3, 6]: 16%
- Percent Fruit with Moderate Greasiness [3, 7]: 44%
- Percent Fruit with No Greasiness [3, 7]: 1%
- Percent Fruit with Severe Greasiness [3, 7]: 48%
- Percent Fruit with Slight Greasiness [3, 7]: 7%
- Percent Fruit with Moderate Greasiness [3, 8]: 31.1%
- Percent Fruit with No Greasiness [3, 8]: 0%
- Percent Fruit with Severe Greasiness [3, 8]: 68.9%
- Percent Fruit with Slight Greasiness [3, 8]: 0%
- Percent Fruit with Moderate Greasiness [3, 9]: 15%
- Percent Fruit with No Greasiness [3, 9]: 0%
- Percent Fruit with Severe Greasiness [3, 9]: 85%
- Percent Fruit with Slight Greasiness [3, 9]: 0%
- Percent Fruit with Moderate Greasiness [3, 10]: 19%
- Percent Fruit with No Greasiness [3, 10]: 0%
- Percent Fruit with Severe Greasiness [3, 10]: 81%
- Percent Fruit with Slight Greasiness [3, 10]: 0%
- % Cripps Red ([4]; 125 ppm foliar spray): 15%
- % Cripps Red ([4]; 250 ppm foliar spray): 11.5%
- % Cripps Red ([4]; 500 ppm foliar spray): 9%
- % Pink Lady ([4]; 125 ppm foliar spray): 76.5%
- % Pink Lady ([4]; 250 ppm foliar spray): 84.5%
- % Pink Lady ([4]; 500 ppm foliar spray): 89%
- % Class 3 ([4]; 125 ppm foliar spray): 8.5%
- % Class 3 ([4]; 250 ppm foliar spray): 4%
- % Class 3 ([4]; 500 ppm foliar spray): 2%

Compound: NCCO/C=C/[C@H](N)C(=O)O [AVG, ([S]-trans-2-amino-4-(2-aminoethoxy)-3-butenoic acid]
- Brix ([1]; 125 ppm foliar spray): 12.33
- Firmness ([1]; 125 ppm foliar spray): 8.62
- Ground Color ([1]; 125 ppm foliar spray): 2.93
- Average % Red Pixel Area ([1]; 125 ppm foliar spray): 6.3%
- Starch ([1]; 125 ppm foliar spray): 25.9
- # of Fruit Dropped (Evaluation 1) ([2]; 125 ppm foliar spray to trees): 9.7 c
- # of Fruit Dropped (Evaluation 2) ([2]; 125 ppm foliar spray to trees): 7.4 c
- Total # of Fruit Dropped ([2]; 125 ppm foliar spray to trees): 20.8 c
- Percent Fruit with Moderate Greasiness [3, 5]: 1%
- Percent Fruit with No Greasiness [3, 5]: 94%
- Percent Fruit with Severe Greasiness [3, 5]: 0%
- Percent Fruit with Slight Greasiness [3, 5]: 5%
- Percent Fruit with Moderate Greasiness [3, 8]: 49%
- Percent Fruit with No Greasiness [3, 8]: 22%
- Percent Fruit with Severe Greasiness [3, 8]: 2%
- Percent Fruit with Slight Greasiness [3, 8]: 27%
- % Cripps Red ([4]; 125 ppm foliar spray): 21.5%
- % Pink Lady ([4]; 125 ppm foliar spray): 69.5%
- % Class 3 ([4]; 125 ppm foliar spray): 9%
